Data as given in the supplement of paper PMC10307832.

What was measured:
Assay in all cases: relative viability (nuclei count vs DMSO), 5 days (fraction); higher = more cells survive
Neratinib + Dasatinib = compound: CCOc1cc2ncc(C#N)c(Nc3ccc(OCc4ccccn4)c(Cl)c3)c2cc1NC(=O)/C=C/CN(C)C [Neratinib] + Cc1nc(Nc2ncc(C(=O)Nc3c(C)cccc3Cl)s2)cc(N2CCN(CCO)CC2)n1 [Dasatinib] (partner 0.075 µM)
In short: (§1)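 Relative viability is defined as nuclei in treated wells over nuclei in vehicle wells. Duplicate plates were run and medians reported. Lung cancer cell lines in 1536-well plates were dosed by pin tool one day after seeding, with one drug or with a fixed anchor-drug dose plus five library-drug doses (not always all listed) in √10 steps, and nuclei were counted after 5 days.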

Neratinib + Pemetrexed = compound: CCOc1cc2ncc(C#N)c(Nc3ccc(OCc4ccccn4)c(Cl)c3)c2cc1NC(=O)/C=C/CN(C)C [Neratinib] + Nc1nc2[nH]cc(CCc3ccc(C(=O)N[C@@H](CCC(=O)O)C(=O)O)cc3)c2c(=O)[nH]1 [Pemetrexed] (partner 0.2 µM)
In short: as §1

Neratinib + Palbociclib = compound: CCOc1cc2ncc(C#N)c(Nc3ccc(OCc4ccccn4)c(Cl)c3)c2cc1NC(=O)/C=C/CN(C)C [Neratinib] + CC(=O)c1c(C)c2cnc(Nc3ccc(N4CCNCC4)cn3)nc2n(C2CCCC2)c1=O [Palbociclib] (partner 0.5 µM)
In short: as §1

Neratinib + Vorinostat = compound: CCOc1cc2ncc(C#N)c(Nc3ccc(OCc4ccccn4)c(Cl)c3)c2cc1NC(=O)/C=C/CN(C)C [Neratinib] + O=C(CCCCCCC(=O)Nc1ccccc1)NO [Vorinostat] (partner 1 µM)
In short: as §1

Cell Line	relative viability (Neratinib + Dasatinib; first compound 0.01 µM)	relative viability (Neratinib + Dasatinib; first compound 0.03162 µM)	relative viability (Neratinib + Dasatinib; first compound 0.3162 µM)	relative viability (Neratinib + Dasatinib; first compound 1 µM)	relative viability (Neratinib + Pemetrexed; first compound 0.01 µM)	relative viability (Neratinib + Pemetrexed; first compound 0.03162 µM)	relative viability (Neratinib + Pemetrexed; first compound 0.1 µM)	relative viability (Neratinib + Pemetrexed; first compound 0.3162 µM)	relative viability (Neratinib + Pemetrexed; first compound 1 µM)	relative viability (Neratinib + Palbociclib; first compound 0.01 µM)	relative viability (Neratinib + Palbociclib; first compound 0.03162 µM)	relative viability (Neratinib + Palbociclib; first compound 0.1 µM)	relative viability (Neratinib + Palbociclib; first compound 0.3162 µM)	relative viability (Neratinib + Palbociclib; first compound 1 µM)	relative viability (Neratinib + Vorinostat; first compound 0.01 µM)	relative viability (Neratinib + Vorinostat; first compound 0.03162 µM)	relative viability (Neratinib + Vorinostat; first compound 0.1 µM)	relative viability (Neratinib + Vorinostat; first compound 0.3162 µM)	relative viability (Neratinib + Vorinostat; first compound 1 µM)	relative viability (Neratinib + Dasatinib; first compound 0.1 µM)
201T	0.629	0.539	0.49	0.6	0.358	0.373	0.316	0.35	0.324	0.361	0.351	0.343	0.321	0.335	0.978	0.95	0.783	0.969	0.849	
A-427	0.895	0.74	0.673	0.571	1.13	1.05	0.975	0.897	0.866	0.554	0.576	0.565	0.488	0.513	0.958		0.849		0.857	0.734
ABC-1	0.638		0.455	0.349						0.618	0.721	0.472	0.587	0.486	1.57		0.813	1.13	0.713	0.593
BEN	0.329	0.305	0.3	0.414	0.971	0.929	0.751	0.778	0.623	0.459	0.47	0.45	0.457	0.447	0.562	0.596	0.606	0.552	0.43	0.319
CAL-12T	0.325	0.475	0.13	0.122	1.38	1.17	0.946	0.798	0.329	0.41	0.478	0.179	0.118	0.184	0.802	0.835	0.553	0.436	0.198	0.212
COR-L23	0.558	0.602	0.439	0.308	0.206	0.199	0.211	0.187	0.191	0.328	0.333	0.275	0.255	0.216	0.466	0.468	0.486	0.449	0.235	0.489
COR-L 105	0.288	0.353	0.146	0.164	1.11	1.13	0.857	0.484	0.37	0.397	0.451	0.385	0.351	0.341	0.781	0.817	0.5	0.505	0.33	0.236
ChaGo-K-1	0.561	0.62	0.571	0.544	0.247	0.274	0.248	0.429	0.233	0.997	0.986	0.93	0.956	0.867	0.9	0.814	0.675	0.799	0.799	0.555
EKVX	0.632	0.676	0.243	0.253	0.413	0.421	0.288	0.232	0.167	0.384	0.448	0.243	0.132	0.152	0.889	0.801	0.498	0.276	0.308	0.443
EMC-BAC-2	0.368	0.342	0.33	0.248	0.473	0.495	0.435	0.451	0.475	0.538	0.526	0.492	0.532	0.41	0.898	0.565	0.447	0.46	0.351	0.302
EPLC-272H		0.457	0.208	0.152	0.27	0.356	0.262	0.281	0.233	0.357	0.309	0.224	0.295	0.292	0.287	0.498	0.415	0.332	0.269	0.284
H3255	0.38	0.392	0.195		0.556	0.568	0.469	0.332	0.226	0.304	0.324	0.305	0.256	0.201	0.826	0.826	0.65	0.509	0.191	0.283
HARA	0.303	0.312	0.155	0.148	0.317	0.276	0.196		0.238	0.24	0.275	0.237	0.195	0.227	0.584	0.656		0.577	0.355	0.196
HCC-15	0.655	0.676	0.644	0.517	0.205	0.222	0.233	0.227	0.205	0.764	0.828	0.738	0.692	0.511	0.954	0.85	0.811	0.724	0.672	0.555
HCC-44					0.63	0.686	0.635	0.648	0.671	1.02	0.969		0.926	0.966	1.11	1.09	1.12	1.1	1.09	
HCC-78	0.5	0.363	0.292	0.276	0.889	0.925	0.883	0.898	0.885	0.467	0.479	0.409	0.424	0.463	0.547	0.408	0.352	0.362	0.28	0.342
HCC-366	0.688	0.716	0.588	0.689	0.202	0.147	0.158	0.14	0.171	0.418	0.464	0.353	0.431	0.211	0.337	0.408	0.345	0.381	0.312	0.615
HCC-827	0.421	0.39	0.248	0.169	0.273	0.271	0.191	0.153	0.13	0.503	0.509	0.513	0.194	0.15	0.929	0.975	0.817	0.395	0.205	0.366

Cell Line	relative viability (Neratinib + Dasatinib; first compound 0.01 µM)	relative viability (Neratinib + Dasatinib; first compound 0.03162 µM)	relative viability (Neratinib + Dasatinib; first compound 0.3162 µM)	relative viability (Neratinib + Dasatinib; first compound 1 µM)	relative viability (Neratinib + Pemetrexed; first compound 0.01 µM)	relative viability (Neratinib + Pemetrexed; first compound 0.03162 µM)	relative viability (Neratinib + Pemetrexed; first compound 0.1 µM)	relative viability (Neratinib + Pemetrexed; first compound 0.3162 µM)	relative viability (Neratinib + Pemetrexed; first compound 1 µM)	relative viability (Neratinib + Palbociclib; first compound 0.01 µM)	relative viability (Neratinib + Palbociclib; first compound 0.03162 µM)	relative viability (Neratinib + Palbociclib; first compound 0.1 µM)	relative viability (Neratinib + Palbociclib; first compound 0.3162 µM)	relative viability (Neratinib + Palbociclib; first compound 1 µM)	relative viability (Neratinib + Vorinostat; first compound 0.01 µM)	relative viability (Neratinib + Vorinostat; first compound 0.03162 µM)	relative viability (Neratinib + Vorinostat; first compound 0.1 µM)	relative viability (Neratinib + Vorinostat; first compound 0.3162 µM)	relative viability (Neratinib + Vorinostat; first compound 1 µM)	relative viability (Neratinib + Dasatinib; first compound 0.1 µM)
HOP-62	0.636	0.67	0.686	0.676	0.323	0.31	0.206		0.241	0.455	0.475	0.383		0.303	0.608	0.691	0.586		0.72	0.602
IA-LM															0.983	1		0.924	0.715	
LC-2-ad	0.569	0.697	0.304	0.342	0.25	0.258	0.274	0.282	0.24	0.487	0.507	0.41	0.442	0.499	0.662	0.739	0.687	0.664	0.709	0.545
LCLC-97TM1	1.05	0.859	0.726	0.693	0.186	0.209	0.138		0.185	0.258	0.237	0.228		0.117	0.985	0.822	0.762		0.48	0.858
LCLC-103H	0.551	0.5	0.375	0.346	0.509	0.489	0.445	0.488	0.484	0.517	0.478	0.457	0.474	0.46		0.822	0.72	0.796	0.775	0.415
LK-2	0.28	0.275	0.258	0.218	0.318	0.464	0.265	0.221	0.151	0.868	0.752		0.476	0.522	0.29	0.37	0.292	0.219	0.271	0.354
LOU-NH91	0.579	0.504	0.413	0.377	0.383	0.439	0.426	0.43	0.424	0.504	0.547	0.557	0.462	0.536	0.936		0.748		0.609	0.448
LU99A	0.636	0.352	0.51	0.278	0.185	0.194	0.155	0.21	0.188	0.377	0.434	0.356	0.385	0.329	0.428	0.465	0.469	0.529	0.43	0.551
LXF-289	0.186	0.234	0.21	0.188	0.881	0.981	0.834	0.933	0.87	0.633	0.631	0.554		0.58	0.819	0.866	0.732	0.803	0.765	0.162
NCI-H23	0.695	0.876	0.825	0.537	0.702	0.641	0.619	0.664	0.499	0.48	0.579	0.482	0.563	0.318	0.699	0.7	0.641	0.493	0.491	0.779
NCI-H322M	0.24	0.237	0.228	0.293	0.642	0.652	0.598	0.448	0.371	0.468	0.475	0.417	0.376	0.41	0.98	0.859	0.822	0.524	0.445	0.237
NCI-H358	0.131	0.131	0.146	0.126	0.172	0.161	0.168	0.133	0.153	0.143	0.112	0.125	0.12	0.129	0.659	0.538	0.282	0.148	0.106	0.104
NCI-H441	0.696	0.488	0.305	0.175	0.256	0.266	0.261	0.278	0.248	0.244	0.192	0.177	0.163	0.161	0.794	0.817	0.747	0.777	0.633	0.611
NCI-H596		0.659	0.5	0.436	0.523	0.529	0.472	0.493	0.488						0.5	0.641	0.631	0.622	0.73	0.749
NCI-H727	0.36	0.359	0.333	0.225						0.616	0.69		0.639	0.538	1.05	1.1		1.11	0.899	0.335
NCI-H1563	0.513	0.485	0.41	0.332	0.812	0.924	0.739	0.747	0.582											0.499
NCI-H1648					0.836	0.799	0.663	0.685	0.55	0.29	0.265	0.231	0.26	0.337	0.328	0.427	0.283	0.304	0.368	
NCI-H1792	0.769	0.905	0.684	0.368	0.826	1.16	0.716	0.812	0.538	0.813	0.71	0.414	0.616	0.445						0.738
